Experimental data: patent US7999011B2, “Method for cardioprotection and neuroprotection by intravenous administration of halogenated volatile anesthetics” (Baxter International Inc., priority 2002, dated 2011)

How the values were obtained:
[1] = Systemic hemodynamics during infarct experiment; assay type: in vivo, rabbit
Method: (§1) Male New Zealand white rabbits weighing between 2.5 and 3.0 kg were anesthetized with intravenous sodium pentobarbital (30 mg/kg). Additional doses of pentobarbital were titrated as required to assure that pedal and palpebral reflexes were absent throughout the experiment. A tracheotomy was performed through a ventral midline incision, and the trachea was cannulated. The rabbits were ventilated with positive pressure using an air-oxygen mixture (FiO2=0.33). […] Body temperature was maintained with a heating blanket. Heparin-filled catheters were inserted into the right carotid artery and the left jugular vein for measurement of arterial blood pressure and fluid or drug administration, respectively. Maintenance fluids consisted of 0.9% saline (15 ml/kg/h) that were continued for the duration of the experiment.
A left thoracotomy was performed at the fourth intercostal space, and the heart was suspended in a pericardial cradle. A prominent branch of the left anterior descending coronary artery (LAD) was selected, and a silk ligature was placed around this artery approximately halfway between the base and apex for the production of coronary artery occlusion and reperfusion in myocardial infarct size experiments. Each rabbit was anticoagulated with 500 U of heparin immediately before LAD occlusion. Coronary artery occlusion was verified by the presence of epicardial cyanosis and regional dyskinesia in the ischemic zone, and reperfusion was confirmed by observing an epicardial hyperemic response. Hemodynamics were continuously recorded on a polygraph throughout experimentation. After the surgical preparation, 30 min of stabilization were allowed.
(§2) Baseline measurements of systemic hemodynamics, arterial blood gas tensions, and blood concentrations of anesthetic agent were performed 30 min after instrumentation was completed. Rabbits received 0.9% saline, drug lipid vehicle (10 ml/h), or intravenous volatile anesthetic (10 ml/h) for 30 min. Infusions were discontinued 30 min prior to coronary occlusion (memory period). Blood concentrations of anesthetic agents were performed at baseline, at the end of anesthetic infusion, and at the end of the memory period just before coronary occlusion). HVA concentrations in blood were determined by gas chromatographic (GC) analysis. All rabbits underwent a 30 min LAD occlusion followed by 3 h reperfusion.
(§3) Statistical analysis of data within and between groups was performed with analysis of variance (ANOVA) for repeated measures followed by Student-Newman-Keuls test. Changes between groups were considered statistically significant when the p value was less than 0.05. All data are expressed as mean±SEM.

[2] = Arterial blood gas analysis; assay type: in vivo, rabbit; settings: for pH: arterial blood
Method: as §1, §2, §3

[3] = End-tidal gas analysis; assay type: in vivo, rabbit; settings: for EtHalogenated: end-tidal
Method: as §2, §3

[4] = Literature MAC values in rabbits and 1 MAC-equivalent blood concentration; assay type: in vivo; settings: 37° C., rabbit; x=λn
Method: “Minimum alveolar concentration (MAC)”, as is known in the art, is the alveolar concentration of an anesthetic, administered by inhalation at a pressure of 1 atmosphere, that prevents movement in 50% of patients in response to a painful stimuli. The MAC is age-dependent; it may be affected by a patient's medical condition; and it may also be affected by other pharmaceutical agents that are administered to the patient. In the context of intravenous administration of HVAs, the term “MAC” or “MAC-equivalent” is intended to mean an intravenous dose which produces the same blood plasma concentration of an anesthetic agent as that attained by inhalational administration of a gaseous concentration of anesthetic which prevents such movement in 50% of patients.
Blood concentrations as measured by GC were converted to their MAC-equivalent values by calculations described below. Initially “n”, or the number of moles of HVA in 1 L of alveolar gas during exposure to 1.0 MAC of the HVA was calculated.
The number of moles of the HVA in 1 L at 37° C. at 1 MAC in rabbits was then used to determine the concentration of the HVA present in blood by using known blood/gas partition values (also known as λ). […] The value for “x” (or the equivalent blood concentration of the HVA at 1 MAC at 37° C. in rabbit) is then determined by the equation: x=λn

[5] = blood/gas; cited from earlier work

Work on `FC(F)OC(Cl)C(F)(F)F` (stereo not drawn) [ISO, isoflurane] yielded an MAP ([1]; Baseline) of 64 ± 5 mmHg, an RPP ([1]; Baseline) of 17.7 ± 2 bpm × mmHg × 10^3 and an HR ([1]; Infusion) of 227 ± 14 bpm. For the same molecule, the MAP ([1]; Infusion) was 57 ± 6 mmHg, the RPP ([1]; Infusion) was 16.2 ± 2.2 bpm × mmHg × 10^3 and the MAP ([1]; Infusion, listed as isoflurane) was “decreased”. The HR ([1]; Ischemia 30 min) was 220 ± 11 bpm, the MAP ([1]; Ischemia 30 min) was 54 ± 5 mmHg and the RPP ([1]; Ischemia 30 min) was 14.3 ± 1.6 bpm × mmHg × 10^3. For the same molecule, the HR ([1]; Memory) was 229 ± 10 bpm, the MAP ([1]; Memory) was 62 ± 6 mmHg and the RPP ([1]; Memory) was 16.7 ± 2 bpm × mmHg × 10^3. The HR ([1]; Reperfusion 1 h) was 212 ± 4 bpm, the MAP ([1]; Reperfusion 1 h) was 52 ± 3 mmHg and the RPP ([1]; Reperfusion 1 h) was 13.3 ± 0.8 bpm × mmHg × 10^3. The RPP ([1]; Reperfusion 1 h, listed as isoflurane) was “decreased”, the HR ([1]; Reperfusion 2 h) was 201 ± 6 bpm and the MAP ([1]; Reperfusion 2 h) was 54 ± 3 mmHg. The RPP ([1]; Reperfusion 2 h) was 13.2 ± 1 bpm × mmHg × 10^3, the HR ([1]; Reperfusion 3 h) was 195 ± 7 bpm and the MAP ([1]; Reperfusion 3 h) was 58 ± 3 mmHg. For the same molecule, the RPP ([1]; Reperfusion 3 h) was 13.5 ± 1 bpm × mmHg × 10^3, the HR ([1]; i.v. emulsion 10 ml/h for 30 min, Baseline) was 240 ± 9 bpm and the PaCO2 ([2]; Baseline) was 34 ± 2 mmHg. It also gave a PaO2 ([2]; Baseline) of 136 ± 17 mmHg, a PaCO2 ([2]; Infusion) of 34 ± 2 mmHg and a PaO2 ([2]; Infusion) of 124 ± 11 mmHg. The PaCO2 ([2]; Ischemia 30 min) was 33 ± 2 mmHg, the PaO2 ([2]; Ischemia 30 min) was 166 ± 24 mmHg and the PaCO2 ([2]; Memory) was 36 ± 2 mmHg. It also gave a PaO2 ([2]; Memory) of 146 ± 15 mmHg, a PaCO2 ([2]; Reperfusion 1 h) of 31 ± 2 mmHg and a PaO2 ([2]; Reperfusion 1 h) of 167 ± 12 mmHg. It also gave a PaCO2 ([2]; Reperfusion 2 h) of 32 ± 2 mmHg, a PaO2 ([2]; Reperfusion 2 h) of 169 ± 12 mmHg and a PaCO2 ([2]; Reperfusion 3 h) of 33 ± 2 mmHg. It also gave a PaO2 ([2]; Reperfusion 3 h) of 160 ± 13 mmHg, a pH ([2]; Baseline) of 7.43 ± 0.02 and a pH ([2]; Infusion) of 7.40 ± 0.03. For the same molecule, the pH ([2]; Ischemia 30 min) was 7.36 ± 0.02, the pH ([2]; Memory) was 7.36 ± 0.02 and the pH ([2]; Reperfusion 1 h) was 7.39 ± 0.02. It also gave a pH ([2]; Reperfusion 2 h) of 7.39 ± 0.02, a pH ([2]; Reperfusion 3 h) of 7.39 ± 0.01 and an EtCO2 ([3]; Baseline) of 34 ± 1 mmHg. The EtCO2 ([3]; Infusion) was 34 ± 1 mmHg, the EtCO2 ([3]; Ischemia 30 min) was 30 ± 2 mmHg and the EtCO2 ([3]; Memory) was 33 ± 2 mmHg. It also gave an EtCO2 ([3]; Reperfusion 1 h) of 27 ± 2 mmHg, an EtCO2 ([3]; Reperfusion 2 h) of 28 ± 2 mmHg and an EtCO2 ([3]; Reperfusion 3 h) of 30 ± 2 mmHg. For the same molecule, the EtHalogenated ([3]; Baseline) was 0%, the EtHalogenated ([3]; Infusion) was 0.31 ± 0.02% and the EtHalogenated ([3]; Ischemia 30 min) was 0.00 ± 0.00%. For the same molecule, the EtHalogenated ([3]; Memory) was 0.02 ± 0.01%, the EtHalogenated ([3]; Reperfusion 1 h) was 0.00 ± 0.00% and the EtHalogenated ([3]; Reperfusion 2 h) was 0.00 ± 0.00%. For the same molecule, the EtHalogenated ([3]; Reperfusion 3 h) was 0.00 ± 0.00%, the “1 MAC-Equivalent Blood Concentration at 1 MAC ("x")” value [4] was 1.06 mM and the “Partition Coefficient ("λ")” value [5] was 1.4.
